One assay addresses BTK (Homo sapiens, UniProt Q06187). The assay is described as follows: Degradation of BTK protein in Namalwa cells (Western blot; DC50, Dmax). Conditions: for DC50: read-out: DC50 (BTK degradation), concentration giving 50% reduction of BTK expression level; for Dmax: read-out: Dmax (BTK degradation). (In western blotting, separated proteins are transferred to a membrane and probed.)

The next assay deals with JeKo-1 cells. The assay is described as follows: Antiproliferative effect, MTS cell viability assay, JeKo-1 cells. Format: cell-based. Conditions: JeKo-1 mantle cell lymphoma cells, read-out: IC50 (anti-proliferation) JeKO-1 cells. In short, it runs like this: (§1)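 Readout was MTS-derived formazan absorbance (490 nm) reflecting metabolically active cells. Treatment lasted 72 h over a 0–10 μM range (0.001, 0.01, 0.1, 1, 10 μM) in JeKo-1 and Mino B-cell malignancy cells.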
On the technique in general: Tetrazolium dyes change colour on reduction, which living cells bring about.

A further assay relates to Mino cells. The assay is described as follows: Antiproliferative effect, MTS cell viability assay, Mino cells. Format: cell-based. Conditions: Mino mantle cell lymphoma cells, read-out: IC50 (anti-proliferation) Mino cells. In short, it runs like this: as §1

The DC50 is the midpoint of the concentration-degradation curve. For orientation: Dmax means the largest share of the target that was removed.

Where two headings read alike, the source gives them in different places.

BTK, sequence (Q06187 whole entry): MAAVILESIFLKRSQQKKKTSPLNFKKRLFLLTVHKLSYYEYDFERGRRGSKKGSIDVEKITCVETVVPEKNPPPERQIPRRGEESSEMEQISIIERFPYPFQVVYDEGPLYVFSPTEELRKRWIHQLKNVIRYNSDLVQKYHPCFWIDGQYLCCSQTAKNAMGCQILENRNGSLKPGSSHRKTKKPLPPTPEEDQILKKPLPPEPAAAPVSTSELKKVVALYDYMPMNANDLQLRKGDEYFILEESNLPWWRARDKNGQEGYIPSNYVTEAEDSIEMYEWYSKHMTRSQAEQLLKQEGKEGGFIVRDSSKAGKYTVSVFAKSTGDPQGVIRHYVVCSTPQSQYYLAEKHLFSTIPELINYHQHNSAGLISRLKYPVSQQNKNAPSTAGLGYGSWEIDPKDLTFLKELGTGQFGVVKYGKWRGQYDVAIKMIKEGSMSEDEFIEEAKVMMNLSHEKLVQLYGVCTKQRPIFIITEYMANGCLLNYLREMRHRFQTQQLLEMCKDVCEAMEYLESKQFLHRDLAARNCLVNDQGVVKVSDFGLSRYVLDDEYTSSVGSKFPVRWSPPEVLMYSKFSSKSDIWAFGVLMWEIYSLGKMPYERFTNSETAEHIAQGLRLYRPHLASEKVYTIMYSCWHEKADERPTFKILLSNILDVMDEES

As for `Nc1ncnc2c1c(-c1ccc(Oc3ccccc3)cc1)nn2C1CCC(C(=O)N2CC(N3CCN(c4ccc5c(c4)C(=O)N(C4CCC(=O)NC4=O)C5=O)CC3)C2)CC1` (stereo not shown) [Compound 511, 5-(4-(1-(4-(4-amino-3-(4-phenoxyphenyl)-1H-pyrazolo[3,4-d]pyrimidin-1-yl)cyclohexane-1-carbonyl)-152-zetidine-3-yl)piperazin-1-yl)-2-(2,6-dioxopiperidin-3-yl)isoindoline-1,3-dione], the “Dmax (BTK degradation)” value on BTK (cell line not given) is recorded as “A (A >90%)”. Also, at BTK (cell line not given), the 50% degradation concentration (DC50) is below 10 nM. For the same compound, the IC50 in the assay with JeKo-1 cells and in the assay on Mino cells was below 1000 nM throughout.

As for `Nc1ncnc2c1c(-c1ccc(Oc3ccccc3)cc1)nn2C1CCC(C(=O)N2CC(N3CCN(c4ccc5c(c4)CN(C4CCC(=O)NC4=O)C5=O)CC3)C2)CC1` (stereo not shown) [Compound 512, 3-(5-(4-(1-(4-(4-amino-3-(4-phenoxyphenyl)-1H-pyrazolo[3,4-d]pyrimidin-1-yl)cyclohexane-1-carbonyl)azetidin-3-yl)piperazin-1-yl)-1-oxoisoindolin-2-yl)piperidine-2,6-dione], the DC50 at BTK (cell line not given) was below 10 nM. Moreover, the maximal degradation (Dmax) on BTK is above 90%. For the same compound, the IC50 with JeKo-1 cells (Homo sapiens) is below 1000 nM; with Mino cells (Homo sapiens, MINO) it was below 1000 nM.

On to `Nc1ncnc2c1c(-c1ccc(Oc3ccccc3)cc1)nn2C1CCC(C(=O)N2CC(C3CCN(c4ccc5c(c4)C(=O)N(C4CCC(=O)NC4=O)C5=O)CC3)C2)CC1` (stereo not shown) [Compound 513, 5-(4-(1-(4-(4-amino-3-(4-phenoxyphenyl)-1H-pyrazolo[3,4-d]pyrimidin-1-yl)cyclohexane-1-carbonyl)azetidin-3-yl)piperidin-1-yl)-2-(2,6-dioxopiperidin-3-yl)isoindoline-1,3-dione], for which the DC50 on BTK (cell line not given) is below 10 nM. Besides, the Dmax at BTK is above 90%. Moreover, the IC50 was below 1000 nM with JeKo-1 cells (Homo sapiens) and below 1000 nM in the assay on Mino cells (Homo sapiens, MINO).

As to `Nc1ncnc2c1c(-c1ccc(Oc3ccccc3)cc1)nn2C1CCC(C(=O)N2CC(C3CCN(c4ccc5c(c4)CN(C4CCC(=O)NC4=O)C5=O)CC3)C2)CC1` (stereo not shown) [Compound 514, 3-(5-(4-(1-(4-(4-amino-3-(4-phenoxyphenyl)-1H-pyrazolo[3,4-d]pyrimidin-1-yl)cyclohexane-1-carbonyl)azetidin-3-yl)piperidin-1-yl)-1-oxoisoindolin-2-yl)piperidine-2,6-dione], on BTK (cell line not given), the DC50 was below 10 nM. Besides, on BTK, the Dmax is above 90%. In addition, the IC50 with JeKo-1 cells (Homo sapiens) is below 1000 nM; in the assay on Mino cells (Homo sapiens, MINO), below 1000 nM.

As for `Nc1ncnc2c1c(-c1ccc(Oc3ccccc3)cc1)nn2[C@@H]1CCCN(CC2CCN(CC3CCN(c4ccc(C(=O)NC5CCC(=O)NC5=O)cc4)CC3)CC2)C1` (stereo partly drawn) [Compound 515, 4-(4-((4-(((R)-3-(4-amino-3-(4-phenoxyphenyl)-1H-pyrazolo[3,4-d]pyrimidin-1-yl)piperidin-1-yl)methyl)piperidin-1-yl)methyl)piperidin-1-yl)-N-(2,6-dioxopiperidin-3-yl)benzamide], on BTK (cell line not given), the DC50 was below 10 nM. On BTK, the Dmax is above 90%. Besides, the IC50 in the assay with JeKo-1 cells (Homo sapiens) is 1000 to 10000 nM; in the assay on Mino cells (Homo sapiens, MINO), below 1000 nM.

As for `Nc1ncnc2c1c(-c1ccc(Oc3ccccc3)cc1)nn2[C@@H]1CCCN(C2CCN(CC3CCN(c4ccc(C(=O)NC5CCC(=O)NC5=O)cc4)CC3)CC2)C1` (stereo partly drawn) [Compound 516, 4-(4-(((R)-3-(4-amino-3-(4-phenoxyphenyl)-1H-pyrazolo[3,4-d]pyrimidin-1-yl)-[1,4′-bipiperidin]-1′-yl)methyl)piperidin-1-yl)-N-(2,6-dioxopiperidin-3-yl)benzamide], the DC50 on BTK (cell line not given) was below 10 nM. Moreover, the Dmax on BTK was above 75%. The IC50 with JeKo-1 cells (Homo sapiens) is below 1000 nM; in the assay on Mino cells (Homo sapiens, MINO) it was 1000 to 10000 nM.

On to `Nc1ncnc2c1c(-c1ccc(Oc3ccccc3)cc1)nn2[C@@H]1CCCN(C2CCN(C(=O)NC3CCC(=O)NC3=O)CC2)C1` (stereo partly drawn) [Compound 517, (3R)-3-(4-amino-3-(4-phenoxyphenyl)-1H-pyrazolo[3,4-d]pyrimidin-1-yl)-N-(2,6-dioxopiperidin-3-yl)-[1,4′-bipiperidine]-1′-carboxamide], for which, at BTK (cell line not given), the 50% degradation concentration (DC50) is below 10 nM. Besides, on BTK, the maximal degradation (Dmax) is above 75%. Moreover, the IC50 is 1000 to 10000 nM with JeKo-1 cells (Homo sapiens) and 1000 to 10000 nM in the assay on Mino cells (Homo sapiens, MINO).

`Nc1ncnc2c1c(-c1ccc(Oc3ccccc3)cc1)nn2[C@@H]1CCCN(CC2CCN(C(=O)NC3CCC(=O)NC3=O)CC2)C1` (stereo partly drawn) [Compound 518, 4-(((R)-3-(4-amino-3-(4-phenoxyphenyl)-1H-pyrazolo[3,4-d]pyrimidin-1-yl)piperidin-1-yl)methyl)-N-(2,6-dioxopiperidin-3-yl)piperidine-1-carboxamide]: the DC50 at BTK (cell line not given) is above 50 nM. In addition, on BTK, the Dmax was above 75%. For the same compound, the IC50 lay within 1000 to 10000 nM in the assay on JeKo-1 cells (Homo sapiens) and 1000 to 10000 nM in the assay on Mino cells (Homo sapiens, MINO).

Regarding `Nc1ncnc2c1c(-c1ccc(Oc3ccccc3)cc1)nn2[C@@H]1CCCN(CCNC(=O)NC2CCC(=O)NC2=O)C1` (stereo partly drawn) [Compound 519, 1-(2-((R)-3-(4-amino-3-(4-phenoxyphenyl)-1H-pyrazolo[3,4-d]pyrimidin-1-yl)piperidin-1-yl)ethyl)-3-(2,6-dioxopiperidin-3-yl)urea], the DC50 on BTK (cell line not given) was 10 to 50 nM. In addition, the Dmax on BTK is above 75%. Also, the IC50 in the assay on JeKo-1 cells (Homo sapiens) was 1000 to 10000 nM; in the assay with Mino cells (Homo sapiens, MINO), above 10000 nM.

`Nc1ncnc2c1c(-c1ccc(Oc3ccccc3)cc1)nn2C1CCN(C(=O)NCCN2CCN(c3ccc4c(c3)C(=O)N(C3CCC(=O)NC3=O)C4=O)CC2)CC1` (stereo not shown) [Compound 520, 4-(4-amino-3-(4-phenoxyphenyl)-1H-pyrazolo[3,4-d]pyrimidin-1-yl)-N-(2-(4-(2-(2,6-dioxopiperidin-3-yl)-1,3-dioxoisoindolin-5-yl)piperazin-1-yl)ethyl)piperidine-1-carboxamide]: the DC50 on BTK (cell line not given) is 10 to 50 nM. For the same compound, at BTK, the Dmax was above 90%. In addition, the IC50 was below 1000 nM in the assay on JeKo-1 cells (Homo sapiens) and below 1000 nM with Mino cells (Homo sapiens, MINO).

Regarding `Nc1ncnc2c1c(-c1ccc(Oc3ccccc3)cc1)nn2C1CCN(C(=O)NCCN2CCN(c3ccc4c(c3)CN(C3CCC(=O)NC3=O)C4=O)CC2)CC1` (stereo not shown) [Compound 521, 4-(4-amino-3-(4-phenoxyphenyl)-1H-pyrazolo[3,4-d]pyrimidin-1-yl)-N-(2-(4-(2-(2,6-dioxopiperidin-3-yl)-1-oxoisoindolin-5-yl)piperazin-1-yl)ethyl)piperidine-1-carboxamide], the DC50 at BTK (cell line not given) is below 10 nM. Also, at BTK, the Dmax is above 90%. Further, the IC50 with JeKo-1 cells (Homo sapiens) is below 1000 nM; in the assay on Mino cells (Homo sapiens, MINO), below 1000 nM.

Turning to `Nc1ncnc2c1c(-c1ccc(Oc3ccccc3)cc1)nn2C1CCC(C(=O)NCCN2CCN(c3ccc4c(c3)C(=O)N(C3CCC(=O)NC3=O)C4=O)CC2)CC1` (stereo not shown) [Compound 522, 4-(4-amino-3-(4-phenoxyphenyl)-1H-pyrazolo[3,4-d]pyrimidin-1-yl)-N-(2-(4-(2-(2,6-dioxopiperidin-3-yl)-1,3-dioxoisoindolin-5-yl)piperazin-1-yl)ethyl)cyclohexane-1-carboxamide], the DC50 on BTK (cell line not given) was below 10 nM. Besides, the Dmax at BTK is above 90%. The IC50 was below 1000 nM with JeKo-1 cells (Homo sapiens) and below 1000 nM in the assay with Mino cells (Homo sapiens, MINO).

Turning to `Nc1ncnc2c1c(-c1ccc(Oc3ccccc3)cc1)nn2C1CCC(C(=O)NCCN2CCN(c3ccc4c(c3)CN(C3CCC(=O)NC3=O)C4=O)CC2)CC1` (stereo not shown) [Compound 523, 4-(4-amino-3-(4-phenoxyphenyl)-1H-pyrazolo[3,4-d]pyrimidin-1-yl)-N-(2-(4-(2-(2,6-dioxopiperidin-3-yl)-1-oxoisoindolin-5-yl)piperazin-1-yl)ethyl)cyclohexane-1-carboxamide], the DC50 on BTK (cell line not given) was below 10 nM. Also, the Dmax at BTK is above 90%. The IC50 was below 1000 nM in the assay with JeKo-1 cells (Homo sapiens) and below 1000 nM in the assay with Mino cells (Homo sapiens, MINO).

The record behind these values is US12139492B2 (Endotarget Inc., priority 2021, dated 2024).
